We go through five molecules from publication PMC8512054 (Molecules, 2021).

Sequence of BACE1 (P56817 46-501): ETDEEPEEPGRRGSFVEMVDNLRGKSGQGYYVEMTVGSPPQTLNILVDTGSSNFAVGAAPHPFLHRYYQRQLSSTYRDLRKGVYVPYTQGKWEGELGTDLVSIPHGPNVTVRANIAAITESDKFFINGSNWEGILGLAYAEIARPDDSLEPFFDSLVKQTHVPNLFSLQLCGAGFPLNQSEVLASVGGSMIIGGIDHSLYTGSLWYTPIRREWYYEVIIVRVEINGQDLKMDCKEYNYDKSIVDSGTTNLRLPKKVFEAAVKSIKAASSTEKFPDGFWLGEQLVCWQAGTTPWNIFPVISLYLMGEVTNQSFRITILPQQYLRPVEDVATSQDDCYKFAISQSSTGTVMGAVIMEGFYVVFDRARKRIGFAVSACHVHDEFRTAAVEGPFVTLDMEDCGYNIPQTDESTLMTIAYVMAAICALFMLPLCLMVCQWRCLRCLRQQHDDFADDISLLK

For one data set, the target named is T1, MAO-B (Homo sapiens, UniProt P27338).
T1 sequence (P27338 1-520): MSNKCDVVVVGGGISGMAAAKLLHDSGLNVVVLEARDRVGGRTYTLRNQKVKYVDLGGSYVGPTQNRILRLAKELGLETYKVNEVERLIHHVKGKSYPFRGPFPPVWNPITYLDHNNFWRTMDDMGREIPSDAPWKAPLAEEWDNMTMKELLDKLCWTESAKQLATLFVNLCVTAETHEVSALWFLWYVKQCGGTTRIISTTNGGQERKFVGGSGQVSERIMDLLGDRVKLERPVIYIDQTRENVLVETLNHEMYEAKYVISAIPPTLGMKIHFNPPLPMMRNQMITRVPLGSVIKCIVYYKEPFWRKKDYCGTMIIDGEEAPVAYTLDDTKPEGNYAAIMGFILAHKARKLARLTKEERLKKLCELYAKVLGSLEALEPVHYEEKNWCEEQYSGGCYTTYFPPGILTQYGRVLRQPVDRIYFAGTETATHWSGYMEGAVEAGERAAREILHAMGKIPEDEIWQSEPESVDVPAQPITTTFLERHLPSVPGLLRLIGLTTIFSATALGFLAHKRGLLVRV
Briefly: MAO-B inhibitory assay (recombinant MAO-B, benzylamine substrate).
Settings: not given
For the molecule `Cc1ccccc1NC(=O)/C=C/c1ccc([N+](=O)[O-])cc1` [NEA5, 3-(4-Nitrophenyl)-N-(O-tolyl)acrylamide], the IC50 (in general, the concentration that gives 50% inhibition) is 38 ± 3 nM.

The same data set, now with this note: from the IC50 values of MAO-A and MAO-B.
With `Cc1ccccc1NC(=O)/C=C/c1ccc([N+](=O)[O-])cc1` [NEA5, 3-(4-Nitrophenyl)-N-(O-tolyl)acrylamide], the “Selectivity index (SI) for MAO-B as compared with MAO-A” value is listed as over 1052.6.

The data set is the same for the next values; noted with them: read-out: % Residual Activity (at 10 µM) MAO-B.
In the case of `Cc1ccccc1NC(=O)/C=C/c1ccc([N+](=O)[O-])cc1` [NEA5, 3-(4-Nitrophenyl)-N-(O-tolyl)acrylamide], the remaining activity at 10 µM is 8.67 ± 2.3%.

System in another data set: not listed separately
Briefly: BBB permeation by PAMPA method. The class given is in vitro ADME.
Settings: not given
The source says: The CNS bioavailability of the molecules was further ascertained by the PAMPA method.
In general terms: PAMPA measures passive passage across an artificial lipid membrane.
Take `CN1C(C(=O)Nc2ccccn2)=C(O)c2ccccc2S1(=O)=O` [Piroxicam, reference compound]: the “Experimental Pe” value is on record as 2.37 ± 0.33 ×10^−6 cm/s.

The data set is the same for the next values; noted with them: class from experimental Pe.
As for `NCCc1ccc(O)c(O)c1` [Dopamine, reference compound], the “Prediction (BBB permeation)” value was “CNS− (CNS− (low BBB permeation predicted: Pe (10^−6 cm/s) < 2.00))”.
The same measure, in the same setting: as for `CCn1cc(C(=O)O)c(=O)c2cc(F)c(N3CCNC(C)C3)c(F)c21` (stereo not shown) [Lomefloxacin, reference compound], the entry is “CNS− (CNS− (low BBB permeation predicted: Pe (10^−6 cm/s) < 2.00))”.
Same read-out and setting: as for `Cc1ccccc1NC(=O)/C=C/c1ccc([N+](=O)[O-])cc1` [NEA5, 3-(4-Nitrophenyl)-N-(O-tolyl)acrylamide], the entry is “CNS+ (CNS+ (high BBB permeation predicted: Pe (10^−6 cm/s) > 4.00))”.
For `CN1C(C(=O)Nc2ccccn2)=C(O)c2ccccc2S1(=O)=O` [Piroxicam, reference compound], the “Prediction (BBB permeation)” value is on record as “CNS± (CNS± (BBB permeation uncertain: Pe (10^−6 cm/s) from 2.00 to 4.00))”.

Staying with this data set, now noted: read-out: Experimental Pe.
Regarding `NCCc1ccc(O)c(O)c1` [Dopamine, reference compound], the Effective permeability (Pe) was determined as 0.26 ± 0.04 ×10⁻⁶ cm/s.
For `CCn1cc(C(=O)O)c(=O)c2cc(F)c(N3CCNC(C)C3)c(F)c21` (stereo not shown) [Lomefloxacin, reference compound], the Effective permeability (Pe) is 1.31 ± 0.51 ×10⁻⁶ cm/s.
In the case of `Cc1ccccc1NC(=O)/C=C/c1ccc([N+](=O)[O-])cc1` [NEA5, 3-(4-Nitrophenyl)-N-(O-tolyl)acrylamide], the Effective permeability (Pe) was found to be 15.5 ± 0.44 ×10⁻⁶ cm/s.

The next data set concerns the target BACE1 (Homo sapiens, UniProt P56817). Nature of the data set: BACE1 activity assay kit (β-secretase, CS0010), fluorescence.
Settings: not given
As for `Cc1ccccc1NC(=O)/C=C/c1ccc([N+](=O)[O-])cc1` [NEA5, 3-(4-Nitrophenyl)-N-(O-tolyl)acrylamide], the IC50 worked out at 17700 ± 1700 nM.

The data set is the same for the next values; noted with them: read-out: % Residual Activity (at 10 µM) BACE1.
`Cc1ccccc1NC(=O)/C=C/c1ccc([N+](=O)[O-])cc1` [NEA5, 3-(4-Nitrophenyl)-N-(O-tolyl)acrylamide]: the remaining activity at 10 µM stood at 44 ± 0.2%.

Another data set has as its target T1, MAO-B.
Assay: not given
On the set-up: purchased Sigma-Aldrich; method as in PMID 32246471. The following applies: competitive inhibitor; read-out: Ki for MAO-B (earlier study); cited from earlier work.
For the molecule `C=CC(=O)Nc1cccc([N+](=O)[O-])c1` [AD9, N-(3-nitrophenyl)prop-2 enamide], the Ki (usually the equilibrium dissociation constant of an inhibitor or competing ligand from its target) is 39 ± 5 nM.

System in the next data set: not given
Assay: not given
On the set-up: method as in PMID 29532412. Conditions: PAMPA-BBB; cited from earlier work.
For the molecule `NCCc1ccc(O)c(O)c1` [Dopamine, reference compound], the “Bibliography Pe” value was 0.2 ×10⁻⁶ cm/s.
On to `CN1C(C(=O)Nc2ccccn2)=C(O)c2ccccc2S1(=O)=O` [Piroxicam, reference compound], for which the “Bibliography Pe” value was 2.5 ×10⁻⁶ cm/s.

System in a further data set: not given
Assay: not given
Settings: not given
Consider `Cc1ccccc1NC(=O)/C=C/c1ccc([N+](=O)[O-])cc1` [NEA5, 3-(4-Nitrophenyl)-N-(O-tolyl)acrylamide], for which the melting point – broadly, the temperature, or range, at which the solid turns liquid – is 200 to 203 °C.

A further data set addresses T2, recombinant MAO-A (Homo sapiens, UniProt P21397).
T2 sequence (P21397 1-527): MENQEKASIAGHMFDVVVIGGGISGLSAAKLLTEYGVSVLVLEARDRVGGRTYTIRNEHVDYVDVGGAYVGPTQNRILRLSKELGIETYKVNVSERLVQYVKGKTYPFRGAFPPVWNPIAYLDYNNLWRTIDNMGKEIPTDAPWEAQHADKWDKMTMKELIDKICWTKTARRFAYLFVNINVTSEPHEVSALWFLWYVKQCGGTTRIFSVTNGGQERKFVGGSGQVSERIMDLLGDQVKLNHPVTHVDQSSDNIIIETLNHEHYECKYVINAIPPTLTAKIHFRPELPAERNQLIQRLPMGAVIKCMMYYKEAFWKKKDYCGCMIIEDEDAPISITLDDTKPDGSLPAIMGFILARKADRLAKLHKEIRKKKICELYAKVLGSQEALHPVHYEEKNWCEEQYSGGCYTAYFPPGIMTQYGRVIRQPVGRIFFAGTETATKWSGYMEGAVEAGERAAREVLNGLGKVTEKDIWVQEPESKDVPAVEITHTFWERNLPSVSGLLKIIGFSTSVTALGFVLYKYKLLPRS
Briefly: MAO-A inhibitory assay (recombinant MAO-A, kynuramine substrate).
Settings: not given
`Cc1ccccc1NC(=O)/C=C/c1ccc([N+](=O)[O-])cc1` [NEA5, 3-(4-Nitrophenyl)-N-(O-tolyl)acrylamide]: the IC50 was over 40000 nM.

The data set is the same for the next values; noted with them: read-out: % Residual Activity (at 10 µM) MAO-A.
Consider `Cc1ccccc1NC(=O)/C=C/c1ccc([N+](=O)[O-])cc1` [NEA5, 3-(4-Nitrophenyl)-N-(O-tolyl)acrylamide], for which the remaining activity at 10 µM came to 83.5 ± 1.3%.
